Experimental data: patent US10350271B2, “Lipidated peptides for lowering blood glucose” (USTAV ORGANICKE CHEMIE A BIOCHEMIE AKADEMIE VED CR, V.V.I., priority 2014, dated 2019)
Square brackets hold non-standard residues; d marks the D form. Peptide text beside a SMILES is read from it. * marks the point of attachment. Decanoyl = CCCCCCCCCC(=O)*; Nle = CCCC[C@H](N)C(=O)O; Octanoyl = CCCCCCCC(=O)*

Legend:
C57BL/6 mice = test: Food intake in fasted mice after SC injection; format: in vivo; settings: 5 mg/kg SC, 45 min after injection
Procedure: NMRI mice, C57BL/6 mice, and Wistar rats (AnLab, Prague, Czech Republic) were housed in a temperature of 23° C. and a daily cycle of 12 h light and dark (light from 6:00). They were given ad libitum water and a standard chow diet that contained 25, 9 and 66% of calories of protein, fat and carbohydrate respectively. Energy content of the feed was 3.4 kcal/g (St-1, Mlýn Kocanda, Czech Republic). Db/db mice and their controls (C57BL/6 background) were obtained from Taconic (Denmark), housed under the same conditions as described above, and fed by Altromin (Taconic, Denmark). ZDF-Lepr^fa/Crl, diabetic fa/fa male rats were obtained from Charles River (France), housed under same conditions as described above, and fed with a Purina 5008 diet (IPS Product Supplies Limited, UK). All experiments followed the ethical guidelines for animal experiments and the law of the Czech Republic Nr. 246/1992.
In experiments with C57BL/6 mice or Wistar rats, food intake was measured with overnight fasted animals in individual cages. Food was withdrawn 17 hours prior to injection of lipidated analog of prolactin releasing peptide (PrRP); free access to water was maintained. The administration of either saline, PrRP, or lipidated analogs was performed by SC injection at doses of 1-10 mg/kg (which corresponded to a volume of 0.2 ml/mouse and 0.1 ml/100 g weight of rat). Fifteen minutes after the lipidated analog of prolactin releasing peptide (PrRP) administration, the mice were given pre-weighed food. The food was then weighed every 30 minutes for 5-10 hours. The administration of each dose was performed at least twice, and each group of mice consisted of at least 6 mice.

[1] = biological target: T1, human PrRP receptor GPR10 (Homo sapiens, UniProt P49683); test: Competitive binding in CHO cells transfected with human GPR10 (human 125I-PrRP31); settings: affinity relative to PrRP31
T1 construct: host or cells: CHO cells
T1 sequence (P49683 1-370): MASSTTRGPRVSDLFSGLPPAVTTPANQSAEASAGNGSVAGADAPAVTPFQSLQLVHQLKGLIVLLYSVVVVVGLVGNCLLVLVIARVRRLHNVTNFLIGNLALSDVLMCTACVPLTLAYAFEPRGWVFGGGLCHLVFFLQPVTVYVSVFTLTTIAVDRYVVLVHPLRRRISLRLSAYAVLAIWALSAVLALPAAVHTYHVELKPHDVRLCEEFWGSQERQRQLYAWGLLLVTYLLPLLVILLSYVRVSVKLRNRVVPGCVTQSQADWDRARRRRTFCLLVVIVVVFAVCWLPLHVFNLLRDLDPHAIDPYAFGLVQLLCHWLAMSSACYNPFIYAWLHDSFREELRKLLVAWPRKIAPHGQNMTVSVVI
How it was run: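 GPR10-transfected CHO cells (40-80 thousand/well) incubated 60 min at room temperature with 5×10^-11 mol·l^-1 human 125I-PrRP31 and unlabeled analog at 10^-11 to 10^-4 mol·l^-1 in Tris binding buffer pH 7.4. Cells solubilized in 0.1 mol/l NaOH, γ-counted; one-site nonlinear regression fit.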

rat PrRP receptor = biological target: T2, rat PrRP receptor (Rattus norvegicus, UniProt Q64121); test: Competitive binding in RC-4B/C rat pituitary cells (125I-rat PrRP31); settings: affinity relative to PrRP31
T2 construct: host or cells: RC-4B/C rat pituitary cell line
T2 sequence (Q64121 1-370): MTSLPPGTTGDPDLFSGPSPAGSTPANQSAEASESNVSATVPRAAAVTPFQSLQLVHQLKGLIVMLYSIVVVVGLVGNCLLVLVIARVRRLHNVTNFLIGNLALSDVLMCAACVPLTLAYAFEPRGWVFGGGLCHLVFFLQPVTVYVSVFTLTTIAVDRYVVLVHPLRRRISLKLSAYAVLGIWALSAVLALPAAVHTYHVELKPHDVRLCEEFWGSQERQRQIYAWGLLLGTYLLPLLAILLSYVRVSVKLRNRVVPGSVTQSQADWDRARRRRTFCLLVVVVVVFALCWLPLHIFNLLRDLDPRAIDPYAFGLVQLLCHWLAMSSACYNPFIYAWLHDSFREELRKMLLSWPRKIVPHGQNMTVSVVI
How it was run: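 Intact rat pituitary RC-4B/C cells incubated 60 min at room temperature with […] rat 125I-PrRP31 and unlabeled analog (10^−11 to 10^−4 mol·l^−1) in HEPES pH 7.4 buffer. Cell-bound radioactivity γ-counted after NaOH lysis; one-site competition fit.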

| % of PrRP31, GPR10 human receptor transfected in CHO cells [1] [%] | % of PrRP31, RC-4B/C rat pituitary cells (rat PrRP receptor) [%] | Structure (SMILES) | Food intake in mice % of saline-treated group (C57BL/6 mice) [%] |
| --- | --- | --- | --- |
| 203 | 385 | CCCC[C@H](NC(=O)[C@H](CO)NC(=O)[C@H](Cc1c[nH]cn1)NC(=O)[C@H](CCC(N)=O)NC(=O)[C@H](Cc1c[nH]cn1)NC(=O)[C@H](C)NC(=O)[C@H](CCCNC(=N)N)NC(=O)[C@@H](N)CO)C(=O)N[C@@H](CCC(=O)O)C(=O)N[C@H](C(=O)N[C@@H](CCCNC(=N)N)C(=O)N[C@H](C(=O)N1CCC[C@H]1C(=O)N[C@@H](CC(=O)O)C(=O)N[C@H](C(=O)N[C@@H](CC(N)=O)C(=O)N1CCC[C@H]1C(=O)N[C@@H](C)C(=O)N[C@@H](Cc1c[nH]c2ccccc12)C(=O)N[C@@H](Cc1ccc(O)cc1)C(=O)N[C@H](C(=O)NCC(=O)N[C@@H](CCCNC(=N)N)C(=O)NCC(=O)N[C@H](C(=O)N[C@@H](CCCNC(=N)N)C(=O)N1CCC[C@H]1C(=O)N[C@H](C(=O)NCC(=O)N[C@@H](CCCNC(=N)N)C(=O)N[C@@H](Cc1ccccc1)C(N)=O)C(C)C)[C@@H](C)CC)[C@@H](C)O)[C@@H](C)CC)[C@@H](C)O)[C@@H](C)O [Analog 3] (H-SRAHQHS[Nle]ETRTPDINPAWYTGRGIRPVGRF-NH2) | 100 |
| 254 | 503 | CCCCCCCC(=O)N[C@@H](CO)C(=O)N[C@@H](CCCNC(=N)N)C(=O)N[C@@H](C)C(=O)N[C@@H](Cc1c[nH]cn1)C(=O)N[C@@H](CCC(N)=O)C(=O)N[C@@H](Cc1c[nH]cn1)C(=O)N[C@@H](CO)C(=O)N[C@@H](CCCC)C(=O)N[C@@H](CCC(=O)O)C(=O)N[C@H](C(=O)N[C@@H](CCCNC(=N)N)C(=O)N[C@H](C(=O)N1CCC[C@H]1C(=O)N[C@@H](CC(=O)O)C(=O)N[C@H](C(=O)N[C@@H](CC(N)=O)C(=O)N1CCC[C@H]1C(=O)N[C@@H](C)C(=O)N[C@@H](Cc1c[nH]c2ccccc12)C(=O)N[C@@H](Cc1ccc(O)cc1)C(=O)N[C@H](C(=O)NCC(=O)N[C@@H](CCCNC(=N)N)C(=O)NCC(=O)N[C@H](C(=O)N[C@@H](CCCNC(=N)N)C(=O)N1CCC[C@H]1C(=O)N[C@H](C(=O)NCC(=O)N[C@@H](CCCNC(=N)N)C(=O)N[C@@H](Cc1ccccc1)C(N)=O)C(C)C)[C@@H](C)CC)[C@@H](C)O)[C@@H](C)CC)[C@@H](C)O)[C@@H](C)O [Analog 4] (Octanoyl-SRAHQHS[Nle]ETRTPDINPAWYTGRGIRPVGRF-NH2) | 94 |
| 266 | 758 | CCCCCCCCCC(=O)N[C@@H](CO)C(=O)N[C@@H](CCCNC(=N)N)C(=O)N[C@@H](C)C(=O)N[C@@H](Cc1c[nH]cn1)C(=O)N[C@@H](CCC(N)=O)C(=O)N[C@@H](Cc1c[nH]cn1)C(=O)N[C@@H](CO)C(=O)N[C@@H](CCCC)C(=O)N[C@@H](CCC(=O)O)C(=O)N[C@H](C(=O)N[C@@H](CCCNC(=N)N)C(=O)N[C@H](C(=O)N1CCC[C@H]1C(=O)N[C@@H](CC(=O)O)C(=O)N[C@H](C(=O)N[C@@H](CC(N)=O)C(=O)N1CCC[C@H]1C(=O)N[C@@H](C)C(=O)N[C@@H](Cc1c[nH]c2ccccc12)C(=O)N[C@@H](Cc1ccc(O)cc1)C(=O)N[C@H](C(=O)NCC(=O)N[C@@H](CCCNC(=N)N)C(=O)NCC(=O)N[C@H](C(=O)N[C@@H](CCCNC(=N)N)C(=O)N1CCC[C@H]1C(=O)N[C@H](C(=O)NCC(=O)N[C@@H](CCCNC(=N)N)C(=O)N[C@@H](Cc1ccccc1)C(N)=O)C(C)C)[C@@H](C)CC)[C@@H](C)O)[C@@H](C)CC)[C@@H](C)O)[C@@H](C)O [Analog 5] (Decanoyl-SRAHQHS[Nle]ETRTPDINPAWYTGRGIRPVGRF-NH2) | 57 |
